In brackets after ≈: the same amount, converted by molar mass. Like-named read-outs stand apart in the source and are kept apart here.
How the values were obtained:
[1] = system: store-operated calcium entry (SOCE) in various cell types; assay: Thapsigargin-induced SOCE Fura-2 bioassay across various cell types; type: cell-based; conditions: 1 μM; positive control; Jurkat, U937, Luva, RBL-2H3, HL-60, HEK-293
Experimental: A Fura-2 calcium flux assay was used to determine cytoplasmic Ca^2+ levels. Briefly, cells were preloaded with Fura-2 AM, and fluorescence intensity in cells intensity was measured over time as a ratio of detected 510 nm fluorescent light emission intensity when excited by UV light at 340 nm and 380 nm wavelengths (f340/f380 ratio). Gadolinium (Gd^3+) is known to block SOCE at a concentration of 1 μM and was used at 1 μM as a positive control in these experiments (gray line).
FIGS. 11TT-11-XX show dose-response curves for hemp varieties on store-operated calcium entry (SOCE) induced by thapsigargin in HEK-293, Jurkat, U937, LUVA, and RBL-2H3 cells. Hemp extracts (cold extracted and unheated) were tested at 6 different doses from 1 to 50 μg/ml. The effects on SOCE amplitude were plotted in a dose-dependent manner to determine the IC50 for each tested compound (see Table 6 for determined IC50 values). All data are averages of three independent runs±SEM. Tested hemp varieties were: Otto-18, Harlequin (HAR), and BOAX.
The general extraction method of Example 6 was carried out, and hemp extracts were subjected to heat treatment prior to testing for activity in the SOCE assay. In some instances, unheated and heated hemp extracts were combined prior to activity testing in the SOCE assay.

[2] = system: store-operated calcium entry (SOCE) in Luva human mast cells; assay: SOCE inhibition, Fura-2 Ca2+ bioassay, thapsigargin-induced, Luva cells; type: cell-based; conditions: Homo sapiens, Mast cell, read-out: IC50 SOCE Luva
[3] = system: store-operated calcium entry (SOCE) in HEK293 cells; assay: SOCE inhibition, Fura-2 Ca2+ bioassay, thapsigargin-induced, HEK293 cells; type: cell-based, human; conditions: for IC50: Homo sapiens
[4] = system: store-operated calcium entry (SOCE) in THP-1 cells; assay: SOCE inhibition, combinatory (isobolographic) analysis, THP-1 cells; type: cell-based, human; conditions: 10 μM cannabinoid plus 2.2 μM CBGA
[5] = system: store-operated calcium entry (SOCE) in THP-1 cells; assay: as above; type: cell-based, human; conditions: Homo sapiens, THP-1, read-out: SOCE IC50
Experimental: Bar graphs shown in FIGS. 10A-10Z and 10BB display SOCE amplitudes calculated from area under the curve (AUC) of the SOCE signals and normalized to SOCE in the presence of gadolinium. Combinatory effects were assessed using an isobolographic analysis approach, where CBGA was paired with another cannabinoid using concentrations of CBGA corresponding to 50%, 40%, 30%, 20%, 10%, and 0% inhibition (as derived from the IC50 curves of FIGS. 9A-9P) and combined with concentrations of the paired cannabinoid, so that each combination would be expected to inhibit 50% of the Ca^2+ signal (e.g., the CBGA concentration causing 50% inhibition was tested alone without the other cannabinoid, the CBGA concentration expected to block 40% of the signal was combined with the concentration of the other cannabinoid expected to inhibit 10%, the CBGA concentration expected to block 30% of the signal was combined with the concentration of the other cannabinoid expected to inhibit 20%, and so on). Simple additivity of cannabinoid pairs would be expected to inhibit the Ca^2+ signal by 50%. All the data in these experiments represent an average of 3 independent runs and the values are graphed as mean values±SEM.

[6] = system: store-operated calcium entry (SOCE) in U937 monocytes; assay: SOCE inhibition, Fura-2 Ca2+ bioassay, thapsigargin-induced, U937 cells; type: cell-based, human; conditions: Homo sapiens
[7] = system: store-operated calcium entry (SOCE) in Jurkat T cells; assay: SOCE inhibition, Fura-2 Ca2+ bioassay, thapsigargin-induced, Jurkat cells; type: cell-based, human; conditions: for IC50: Homo sapiens, Jurkat; for Combinatory effect on SOCE inhibition when paired with CBGA: isobolographic analysis, pairs expected to inhibit 50%
[8] = system: store-operated calcium entry (SOCE) in RBL-2H3 rat mast cells; assay: SOCE inhibition, Fura-2 Ca2+ bioassay, thapsigargin-induced, RBL-2H3 cells; type: cell-based; conditions: Rattus norvegicus
TRPM7 [9] = target: T1, TRPM7 (Homo sapiens, UniProt Q96QT4); assay: Whole-cell patch clamp of TRPM7 over-expressed in HEK293 cells; type: cell-based; design: expressed in transfected cells; host or cells: HEK293; conditions: HEK293 over-expressing TRPM7; 1, 3, 10 or 30 μM; +40 mV; 0 ATP, 0 Mg2+
Experimental: Activation of TRPM7 over-expressed in HEK293 cells by perfusing the cells with intracellular solution containing 0 ATP and 0 Mg^2+, resulting in fast and maximal activation of TRPM7 outward currents at +40 mV is shown in FIG. 14.
Data from dose-response curves for the inhibition of TRPM7 currents (dark gray symbols) obtained in experiments shown in FIG. 14 and SOCE-mediated increases in intracellular Ca^2+ (light gray symbols) are shown in FIG. 15.
Target sequence in this assay (Q96QT4 whole entry, species assumed): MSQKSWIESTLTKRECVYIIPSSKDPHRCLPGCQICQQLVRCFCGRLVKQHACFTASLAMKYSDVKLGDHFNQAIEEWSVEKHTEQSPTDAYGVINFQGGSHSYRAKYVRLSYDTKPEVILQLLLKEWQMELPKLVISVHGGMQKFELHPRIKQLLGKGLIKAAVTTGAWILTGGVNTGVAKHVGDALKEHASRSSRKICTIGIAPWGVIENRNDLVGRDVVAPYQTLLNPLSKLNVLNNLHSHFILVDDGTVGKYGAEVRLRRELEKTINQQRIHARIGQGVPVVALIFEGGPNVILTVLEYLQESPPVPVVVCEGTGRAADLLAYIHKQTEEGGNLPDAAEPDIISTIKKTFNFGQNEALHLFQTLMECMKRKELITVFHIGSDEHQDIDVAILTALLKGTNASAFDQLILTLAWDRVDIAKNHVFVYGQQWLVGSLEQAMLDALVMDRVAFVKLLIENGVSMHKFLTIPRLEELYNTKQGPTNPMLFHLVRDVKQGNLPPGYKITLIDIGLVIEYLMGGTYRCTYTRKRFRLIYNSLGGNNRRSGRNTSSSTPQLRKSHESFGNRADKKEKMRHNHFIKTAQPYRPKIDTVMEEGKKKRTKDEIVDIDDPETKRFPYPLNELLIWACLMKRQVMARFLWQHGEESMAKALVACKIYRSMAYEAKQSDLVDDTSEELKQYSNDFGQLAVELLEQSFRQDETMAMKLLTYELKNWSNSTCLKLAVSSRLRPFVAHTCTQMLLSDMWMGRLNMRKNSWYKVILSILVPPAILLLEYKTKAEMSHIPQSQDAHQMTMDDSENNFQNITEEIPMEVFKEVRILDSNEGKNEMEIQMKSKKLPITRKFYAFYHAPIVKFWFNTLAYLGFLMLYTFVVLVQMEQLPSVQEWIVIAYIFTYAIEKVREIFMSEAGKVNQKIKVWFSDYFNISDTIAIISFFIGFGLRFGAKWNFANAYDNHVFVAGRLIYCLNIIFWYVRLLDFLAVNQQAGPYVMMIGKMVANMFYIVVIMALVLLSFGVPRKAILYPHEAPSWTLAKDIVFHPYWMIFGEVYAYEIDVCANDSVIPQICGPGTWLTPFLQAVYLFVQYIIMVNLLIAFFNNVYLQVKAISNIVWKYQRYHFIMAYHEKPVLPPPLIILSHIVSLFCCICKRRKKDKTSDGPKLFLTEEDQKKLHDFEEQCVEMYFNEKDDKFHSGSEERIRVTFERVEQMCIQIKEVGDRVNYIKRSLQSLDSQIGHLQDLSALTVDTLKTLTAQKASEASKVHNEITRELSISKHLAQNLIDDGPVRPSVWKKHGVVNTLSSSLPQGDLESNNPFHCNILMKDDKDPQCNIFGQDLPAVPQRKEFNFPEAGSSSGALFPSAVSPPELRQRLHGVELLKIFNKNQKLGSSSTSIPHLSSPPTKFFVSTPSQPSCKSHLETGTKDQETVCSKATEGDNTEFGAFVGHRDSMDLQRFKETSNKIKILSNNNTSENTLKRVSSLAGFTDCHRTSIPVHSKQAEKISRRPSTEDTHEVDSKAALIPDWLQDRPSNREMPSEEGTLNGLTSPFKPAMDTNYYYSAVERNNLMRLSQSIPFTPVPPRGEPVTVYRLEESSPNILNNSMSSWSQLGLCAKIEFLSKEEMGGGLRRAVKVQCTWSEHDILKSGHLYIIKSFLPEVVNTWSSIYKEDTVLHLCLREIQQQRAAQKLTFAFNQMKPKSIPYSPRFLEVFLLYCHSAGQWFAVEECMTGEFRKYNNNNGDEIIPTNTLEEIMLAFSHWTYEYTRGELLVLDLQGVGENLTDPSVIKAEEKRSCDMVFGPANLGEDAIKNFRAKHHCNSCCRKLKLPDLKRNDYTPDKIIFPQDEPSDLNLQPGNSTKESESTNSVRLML

TRPM7 [10] = target: T1, TRPM7; assay: Whole-cell patch clamp of TRPM7 outward current in Jurkat cells; type: cell-based; design: endogenous in cells; host or cells: Jurkat; conditions: 10 μM, +40 mV, removal of intracellular ATP
Experimental: (§1) Inward CRAC currents were induced at −120 mV (gray trace) and outward currents at +40 mV (black trace, where CRAC currents reverse and are essentially absent). At the +40 mV voltage potential, TRPM7 channels produce monovalent outward currents. Perfusion of 50 μM IP3 activates ICRAC at −120 mV as above and the removal of intracellular ATP slowly activates TRPM7 current at +40 mV. Application of 10 μM CBGA blocks both outward TRPM7 and inward CRAC currents (see FIG. 13, black and gray traces, respectively). Without being bound by theory, CBGA may also block TRPM7's kinase activity, similar to other TRPM7 blockers such as NS8593.
Target sequence in this assay (Q96QT4 whole entry): as the sequence (Q96QT4 whole entry, species assumed) above

CRAC channels (ICRAC) = assay: Whole-cell patch clamp of IP3-induced ICRAC in Jurkat cells; type: cell-based, human; conditions: 10 μM, 50 μM IP3, −120 mV
Experimental: The ability of CBGA to inhibit store-operated calcium entry (SOCE) within cells was experimentally interrogated (see FIG. 12). Jurkat cells were perfused with 50 μM IP3 to induce store depletion and activation of CRAC channels (the resulting Ca^2+ inward current is known as ICRAC). ICRAC is a long-lasting inward current at −120 mV membrane potential (black trace) that can be blocked by 10 μM CBGA (gray trace).
as §1

[11] = HEK293, read-out: IC50 SOCE HEK-293, Table 5, individual cannabinoids, HEK-293
[12] = U-937, read-out: IC50 SOCE U937
[13] = RBL-2H3, read-out: IC50 SOCE RBL-2H3, Table 5, individual cannabinoids, RBL-2H3
[14] = U-937, read-out: IC50 SOCE U937, Table 5, individual cannabinoids, U937
[15] = read-out: IC50 SOCE Jurkat, Table 5, individual cannabinoids

| SMILES | Effect on thapsigargin-induced SOCE (f340/f380 ratio) [1] | IC50 [2] [µg/mL] | IC50 [3, 11] [µg/mL] | Combinatory effect when paired with 2.2 μM CBGA [4] | IC50 [5] [µM] | IC50 [6, 12] [µg/mL] | IC50 ([7]; read-out: IC50 SOCE Jurkat) [µg/mL] | Effect on SOCE (Ca2+ signals), pure compounds ([7]; Jurkat cells, compounds at 10 μM, 1 μM thapsigargin) | IC50 on SOCE relative to acidic variations ([7]; Jurkat cells, dose response 0 to 30 μM) | Combinatory effect on SOCE inhibition when paired with CBGA ([7]; Jurkat cells) | IC50 [8, 13] [µg/mL] | IC50 [6, 14] [µg/mL] | IC50 [7, 15] [µg/mL] | IC50 ([3]; HEK293, read-out: IC50 SOCE HEK-293) [µg/mL] | IC50 ([8]; RBL-2H3, read-out: IC50 SOCE RBL-2H3) [µg/mL] | Block of TRPM7 current (TRPM7 [9]) | Inhibitory effect in immune cells compared with non-immune HEK293 cells ([3]; Jurkat vs HEK293 screening, 10 μM) | Block of outward TRPM7 current (TRPM7 [10]) | Block of inward CRAC current (ICRAC) (CRAC channels (ICRAC)) | IC50 ([7]; read-out: IC50 inhibition of SOCE-mediated increases in intracellular Ca2+, FIG. 15, cell type not stated there) [µM] |
| --- | --- | --- | --- | --- | --- | --- | --- | --- | --- | --- | --- | --- | --- | --- | --- | --- | --- | --- | --- | --- |
| [Cl][Gd]([Cl])[Cl] [Gd^3+, Gadolinium Chloride] | inhibited SOCE | – | – | – | – | – | – | – | – | – | – | – | – | – | – | – | – | – | – | – |
| C=C(C)[C@@H]1CCC(C)=C[C@H]1c1c(O)cc(CCCCC)cc1O [CBD, (1′R,2′R)-5′-methyl-4-pentyl-2′-(prop-1-en-2-yl)-1′,2′,3′,4′-tetrahydro-[1,1′-biphenyl]-2,6-diol] | – | > 50 | > 50 | sub-additive | > 30 | > 50 | 7.42 | low to no effects | higher IC50 than their acidic variations | Simple additive behavior | 2.53 (≈ 8.05 µM) | – | – | – | – | – | – | – | – | – |
| CCCCCc1cc(O)c2c(c1)OC(C)(C)[C@@H]1CC=C(C)C[C@@H]21 [Δ8-THC, (6aR,10aR)-6,6,9-trimethyl-3-pentyl-6a,7,10,10a-tetrahydro-6H-benzo[c]chromen-1-ol] | – | > 50 | > 50 | sub-additive | > 30 | – | – | – | – | inhibit less than predicted | 39.7 (≈ 126 µM) | > 50 | 14.2 | – | – | – | – | – | – | – |
| CCCc1cc(O)c(C/C=C(\C)CCC=C(C)C)c(O)c1 [CBGV, (E)-2-(3,7-dimethylocta-2,6-dien-1-yl)-5-propylbenzene-1,3-diol] | – | 40.7 (≈ 141 µM) | – | simple additive agonists | > 30 | 14.5 (≈ 50.3 µM) | 5.27 | – | – | stronger than predicted inhibitions | – | – | – | 30.9 (≈ 107 µM) | 6.46 (≈ 22.4 µM) | – | – | – | – | – |
| CCCCCc1cc(O)c2c(c1)OC(C)(C)c1ccc(C)cc1-2 [CBN, 6,6,9-trimethyl-3-pentyl-6H-benzo[c]chromen-1-ol] | – | > 50 | 42.6 (≈ 137 µM) | simple additive agonists | > 30 | – | – | – | – | Simple additive behavior | 33.4 (≈ 108 µM) | 45.3 (≈ 146 µM) | 9.09 | – | – | – | – | – | – | – |
| CCCCCc1cc(O)c(C/C=C(\C)CCC=C(C)C)c(O)c1C(=O)O [CBGA, (E)-3-(3,7-dimethylocta-2,6-dien-1-yl)-2,4-dihydroxy-6-pentylbenzoic acid] | – | 2.21 (≈ 6.13 µM) | 5.72 (≈ 15.9 µM) | – | ~2.2 | – | – | – | – | – | 0.27 (≈ 0.749 µM) | 2.23 (≈ 6.19 µM) | 0.53 | – | – | dose-dependent block | more potent | blocks | completely blocks | ~2 |
